Measurements: patent publication US20040137389A1, “Heat-developable light-sensitive material” (priority 2002, published 2004)

Assay: Difference between light absorption intensity before and after heat development (absorbance at 415 nm), Examples 1 and 2
Conditions: A/B×100 (after/before heat development, silver iodide-free sample as base), development 24 seconds, Example 1
Protocol: (§1) Each sample was thermally developed with Fuji Medical Dry Laser Imager FM-DPL Model in which the temperatures of four panel heaters were set at 112° C., 118° C., 120° C. and 120° C., respectively and which the overall development time was set at 24 seconds.
Using a spectral photometer U-4100 (manufactured by Hitachi) equipped with an integrating sphere, the spectral absorbance of each sample was measured. […] The change rate of the absorbance at 415 nm of each of samples 11 to 20 before heat development and that after heat development was measured. Apart from the above samples, silver iodide-free sample was prepared, and the absorbance thereof at 415 nm was used as a base standard. The absorbance reduction rate of each sample was computed according to the formula mentioned below.
Absorbance reduction rate (%)=A/B×100
(§2) A=(absorbance of a sample after heat development)−(absorbance of a silver iodide-free sample after heat development)
(§3) B=(absorbance of the sample before heat development)−(absorbance of a silver iodide-free sample before heat development)

In the case of `CC(C)c1ccc2cnncc2c1` [6-isopropylphthalazine], the “Absorbance Change Rate (%)” value is reported as “may lower the absorption intensity”.

Assay: Measurement of acid dissociation constant pKa by potentiometric titration
Assay type: physicochemical
Conditions: compound of formula (1) or (2); tetrahydrofuran/water (3/2), 25° C.; Table 2
Protocol: Using an automatic potentiometric titration meter, Kyoto Electronic Industry's AT-420, the acid dissociation constant (pKa) of the conjugate acid of the compound of formula (1) in a mixed solution of tetrahydrofuran and water (3/2) was measured at 25° C.
Using an automatic potentiometric titration meter, Kyoto Electronic Industry's AT-420, the acid dissociation constant (pKa) of the conjugate acid of the silver iodide complex-forming agent in a mixed solution of tetrahydrofuran and water (3/2) was measured at 25° C.

First: c1ccc(-c2ccnnc2)cc1 [Sample F-405]
Second: O=C(Nc1ccncc1)c1ccccc1 [Sample F-325]
The “pKa of Conjugate Acid” value of the first is lower: 3.6 for the first, 4.2 for the second.

For `Cc1nnc(C)c(C)c1C` [Sample F-404], the “pKa of Conjugate Acid” value was 5.4.

Same assay, conditions: conjugate acid of the silver iodide complex-forming agent; tetrahydrofuran/water (3/2), 25° C.; Table 5

Compared with `c1ccc(-c2ccnnc2)cc1` [Sample F-405], `O=C(Nc1ccncc1)c1ccccc1` [Sample F-325] is higher in pKa: 3.6 for the first, 4.2 for the second.

For `Cc1nnc(C)c(C)c1C` [Sample F-404], the pKa was 5.4.

Same assay, conditions: conjugate acid of the silver iodide complex-forming agent; tetrahydrofuran/water (3/2), 25° C.; Table 6

`O=C(Nc1ccncc1)c1ccccc1` [Sample F-325] showed a pKa of 4.2.

Same assay, conditions: conjugate acid of the silver iodide complex-forming agent; tetrahydrofuran/water (3/2), 25° C.; Table 8

Compared with `c1ccc(-c2ccnnc2)cc1` [Sample F-405], `O=C(Nc1ccncc1)c1ccccc1` [Sample F-325] is higher in pKa: 3.6 for the first, 4.2 for the second.

Work on `Cc1nnc(C)c(C)c1C` [Sample F-404] yielded a pKa of 5.4.

Same assay, conditions: conjugate acid; tetrahydrofuran/water (3/2), 25° C.; Table 1

In the case of `O=C(Nc1ccncc1)c1ccccc1` [Sample F-325], the “Compound of Formula (1) or (2) pKa” value is reported as 4.2.

Same assay, conditions: conjugate acid; tetrahydrofuran/water (3/2), 25° C.; Table 3

With `O=C(Nc1ccncc1)c1ccccc1` [Sample F-325] the “Silver Iodide Complex-forming Agent pKa” value was 4.2.

Same assay, conditions: tetrahydrofuran/water (3/2) mixed solution, compound of formula (1) or (2), 25° C., Table 2, read-out: pKa of Conjugate Acid

In the case of `c1cc2cnncc2s1` [Sample F-421], the pKa is reported as 4.2.

Assay: Retention of absorbance at 415 nm after heat development, Examples 3 and 4
Conditions: A/B×100 (after/before heat development), development 24 seconds, grain size 0.12 μm, Example 3
Protocol: as §1
Using a spectral photometer U-4100 (manufactured by Hitachi) equipped with an integrating sphere, the spectral absorbance of each sample was measured. The change rate of the absorbance at 415 nm of each sample before heat development and that after heat development was measured. Apart from the above samples, silver iodide-free sample was prepared, and the absorbance thereof at 415 nm was used as a base standard. The retention of absorbance of each sample was computed according to the formula mentioned below. The smaller the retention, the larger the reduction in absorption, which is preferable.
Retention of Absorbance (%)=A/B×100
as §2, §3

In the case of `CC(C)c1ccc2cnncc2c1` [6-isopropylphthalazine], the “Silver Iodide Absorption Retention (%)” value is reported as “more effective than phthalazine”.
For `c1ccc2cnncc2c1` [phthalazine, Phthalazine], the “Silver Iodide Absorption Retention (%)” value was “effective for reducing the absorption intensity”.

Assay: not given
Conditions: Hammett's substituent constants of Y11 to Y14; constants from Chemical Review, 1991, Vol. 91; cited from earlier work

Compared with `COc1cc2cn[nH]c(=O)c2cc1OC` [Sample I-40], `Cc1cc2cn[nH]c(=O)c2cc1C` [Sample I-18] is higher in “Total Sum of σ p” value: −0.54 for the first, −0.34 for the second.

First: CCCc1ccc2c(=O)[nH]ncc2c1 [Sample I-9]
Second: CCCCc1ccc2c(=O)[nH]ncc2c1 [Sample I-14]
The “Total Sum of σ p” value of the first is higher: −0.13 for the first, −0.16 for the second.

`CCOc1ccc2c(=O)[nH]ncc2c1` [Sample I-31] and `CCOc1ccc2cn[nH]c(=O)c2c1` [Sample I-32] are the same in “Total Sum of σ p” value: −0.24 for the first, −0.24 for the second.

Going from `Nc1ccc2c(=O)[nH]ncc2c1` [Sample I-60] to `Cc1ccc2c(=O)[nH]ncc2c1` [Sample I-2], the “Total Sum of σ p” value rises from −0.66 to −0.17.

Compared with `COc1ccc2c(=O)[nH]ncc2c1OC` [Sample I-41], `COc1cc2c(=O)[nH]ncc2c(OC)c1OC` [Sample I-42] is lower in “Total Sum of σ p” value: −0.54 for the first, −0.81 for the second.

Going from `CCCCc1ccc2cn[nH]c(=O)c2c1` [Sample I-23] to `CCCc1ccc2cn[nH]c(=O)c2c1` [Sample I-11], the “Total Sum of σ p” value rises from −0.16 to −0.13.

`CC(C)Cc1ccc2c(=O)[nH]ncc2c1` [Sample I-16] and `CC(C)Cc1ccc2cn[nH]c(=O)c2c1` [Sample I-25] are the same in “Total Sum of σ p” value: −0.12 for the first, −0.12 for the second.

Compared with `O=c1[nH]ncc2cc(NS(=O)(=O)c3ccccc3)ccc12` [Sample I-65], `O=C(Nc1ccc2c(=O)[nH]ncc2c1)c1ccccc1` [Sample I-62] is lower in “Total Sum of σ p” value: 0.01 for the first, −0.19 for the second.

Compared with `CCOc1cccc2cn[nH]c(=O)c12` [Sample I-33], `CCCOc1cccc2cn[nH]c(=O)c12` [Sample I-37] is lower in “Total Sum of σ p” value: −0.24 for the first, −0.32 for the second.

Going from `Cc1ccc2cn[nH]c(=O)c2c1` [Sample I-3] to `CCc1ccc2cn[nH]c(=O)c2c1` [Sample I-7], the “Total Sum of σ p” value rises from −0.17 to −0.15.

Compared with `CCC(C)c1ccc2cn[nH]c(=O)c2c1` (stereo not shown) [Sample I-24], `CC(C)c1ccc2cn[nH]c(=O)c2c1` [Sample I-22] is lower in “Total Sum of σ p” value: −0.12 for the first, −0.15 for the second.

Going from `Cc1cccc2cn[nH]c(=O)c12` [Sample I-4] to `COc1cccc2cn[nH]c(=O)c12` [Sample I-29], the “Total Sum of σ p” value falls from −0.17 to −0.27.

First: CC(C)(C)c1ccc2c(=O)[nH]ncc2c1 [Sample I-17]
Second: CC(C)c1ccc2c(=O)[nH]ncc2c1 [Sample I-13]
The “Total Sum of σ p” value of the first is lower: −0.20 for the first, −0.15 for the second.

Going from `CC(C)Oc1ccc2c(=O)[nH]ncc2c1` [Sample I-38] to `COc1ccc2c(=O)[nH]ncc2c1` [Sample I-27], the “Total Sum of σ p” value rises from −0.33 to −0.27.

Going from `CCc1ccc2c(=O)[nH]ncc2c1` [Sample I-6] to `CCCOc1ccc2c(=O)[nH]ncc2c1` [Sample I-35], the “Total Sum of σ p” value falls from −0.15 to −0.32.

First: CC(=O)Oc1ccc2cn[nH]c(=O)c2c1 [Sample I-69]
Second: COc1ccc2cn[nH]c(=O)c2c1 [Sample I-28]
The “Total Sum of σ p” value of the first is higher: 0.31 for the first, −0.27 for the second.

First: Cc1cccc2c(=O)[nH]ncc12 [Sample I-1]
Second: COc1cccc2c(=O)[nH]ncc12 [Sample I-26]
The “Total Sum of σ p” value of the first is higher: −0.17 for the first, −0.27 for the second.

First: CCCc1cccc2cn[nH]c(=O)c12 [Sample I-12]
Second: CCc1cccc2cn[nH]c(=O)c12 [Sample I-8]
The “Total Sum of σ p” value of the first is higher: −0.13 for the first, −0.15 for the second.

First: CCN(CC)c1ccc2c(=O)[nH]ncc2c1 [Sample I-59]
Second: CN(C)c1ccc2cn[nH]c(=O)c2c1 [Sample I-74]
The “Total Sum of σ p” value of the first is higher: −0.72 for the first, −0.83 for the second.

Going from `O=c1[nH]ncc2cc(-c3ccccc3)ccc12` [Sample I-15] to `O=c1[nH]ncc2cc(Oc3ccccc3)ccc12` [Sample I-47], the “Total Sum of σ p” value falls from −0.01 to −0.03.

Going from `Cc1ccc2c(=O)[nH]ncc2c1C` [Sample I-19] to `Cc1cc2c(=O)[nH]ncc2c(C)c1C` [Sample I-20], the “Total Sum of σ p” value falls from −0.34 to −0.51.

Compared with `O=c1[nH]ncc2ccc(Oc3ccccc3)cc12` [Sample I-48], `CCCOc1ccc2cn[nH]c(=O)c2c1` [Sample I-36] is lower in “Total Sum of σ p” value: −0.03 for the first, −0.32 for the second.

First: CCc1cc2cn[nH]c(=O)c2cc1C [Sample I-21]
Second: CCc1cccc2c(=O)[nH]ncc12 [Sample I-5]
The “Total Sum of σ p” value of the first is lower: −0.32 for the first, −0.15 for the second.

First: CCCc1cccc2c(=O)[nH]ncc12 [Sample I-10]
Second: CCCOc1cccc2c(=O)[nH]ncc12 [Sample I-34]
The “Total Sum of σ p” value of the first is higher: −0.13 for the first, −0.32 for the second.

Going from `CCCCOc1ccc2c(=O)[nH]ncc2c1` [Sample I-39] to `CC(=O)Nc1ccc2c(=O)[nH]ncc2c1` [Sample I-61], the “Total Sum of σ p” value rises from −0.34 to 0.00.

In the case of `CCOc1cccc2c(=O)[nH]ncc12` [Sample I-30], the “Total Sum of σ p” value is listed as −0.24.
